“Also recorded” adds a separate entry of the source. Like-named read-outs stand apart in the source and are kept apart here.
How the values were obtained:
[1] = test system: acute myeloid leukemia xenograft model THP1; test: AML THP1 subcutaneous xenograft, tumor volume; assay type: in vivo, SCID mice; settings: start day 16, 7 days of treatment
Description: (§1) Tumor cells were injected subcutaneously into the flank of the mice. Treatment was initiated at a predefined tumor size after cell inoculation. BAY 2402234 was applied orally (p.o.) at various dose levels and schedules (daily or intermittent). BAY 2402234 was prepared in solution in PEG400/ETOH 9/1. Animal body weight during the study was monitored at least twice weekly. Subcutaneous tumors were measured with a caliper (length and width) at least twice a week, depending on the doubling time of the tumor. Values are presented as volume. Efficacy was calculated on a specific day according to the formula: T/C (treatment/control ratio)=(mean tumor volume from the treated group/mean tumor volume from the vehicle group). Tumor volume was calculated using (width^2×length)/2.
(§2) AML THP1 cells were inoculated in the flank of SCID mice and 16 days after implantation tumors were measured and animals were randomized at an average tumor volume of around 100 mm^3. Treatment with DHODH Inhibitor BAY2402234 was started at time of randomization. Either daily dosing of 5 mg/kg or 10 mg/kg at a 4 days on/3 days off schedule was used and the drug was given orally in 90/10 PEG400/EtOH formulation. […] The daily dosing sums up to a total weekly dose of 35 mg/kg, while the 4 days on/3 days off schedule sums up to a 40 mg/kg weekly dose.

[2] = test system: Mantle cell lymphoma xenograft model Z138; test: Mantle cell lymphoma Z138 subcutaneous xenograft, tumor volume; assay type: in vivo, SCID mice; settings: start day 20
Description: as §1
Mantle Cell Lymphoma Z138 cells were inoculated in the flank of SCID mice and 20 days after implantation tumors were measured and animals were randomized at an average tumor volume of around 100 mm^3. Treatment with DHODH Inhibitor BAY 2402234 was started at time of randomization. Either daily dosing of 5 mg/kg or 10 mg/kg at a 4 days on/3 days off schedule or 5 mg/kg at a 5 days on 2 days off was used and the drug was given orally in 90/10 PEG400/EtOH formulation. The daily dosing sums up to a total weekly dose of 35 mg/kg, while the 4 days on/3 days off schedule sums up to a 40 mg/kg weekly dose and the 5 days on 2 days off sums up to 25 mg/kg weekly dose.

[3] = test system: colorectal cancer xenograft model HT29; test: Colorectal cancer HT29 subcutaneous xenograft, tumor volume; assay type: in vivo, mice; settings: start day 9
Description: as §1
(§3) Colorectal cancer cells were inoculated in the flank of mice and 9 days after implantation tumors were measured and animals were randomized at an average tumor volume of around 80 mm^3. Treatment with DHODH Inhibitor BAY2402234 was started at time of randomization. Either daily dosing of 5 mg/kg or 10 mg/kg at a 5 days on/2 days off schedule or 5 mg/kg at a 5 days on 2 days off was used and the drug was given orally in 90/10 PEG400/EtOH formulation. The daily dosing sums up to a total weekly dose of 35 mg/kg, while the 5 days on/2 days off schedule sums up to a 50 or a 25 mg/kg weekly dose respectively.

[4] = Body weight of animals in the HT29 xenograft model (tolerability); assay type: in vivo, mice; settings: for body weight / tolerability: 5 mg/kg p.o. 5 days on/2 days off, course of the experiment
Description: as §1, §3

[5] = mouse, in vivo
Description: as §2

solid cancer = settings: weekly doses or 5 days on 23 days off schedule, cited from earlier work
[6] = 5 mg/kg p.o. daily (35 mg/kg weekly)
[7] = 10 mg/kg p.o. 4 days on/3 days off (40 mg/kg weekly)
[8] = 5 mg/kg p.o. 5 days on/2 days off (25 mg/kg weekly)

## CCn1c(CO)nn(-c2cc(O[C@@H](C)C(F)(F)F)c(C(=O)Nc3c(F)cccc3Cl)cc2F)c1=O [BAY 2402234, N-(2-chloro-6-fluorophenyl)-4-[4-ethyl-3-(hydroxymethyl)-5-oxo-4,5-dihydro-1H-1,2,4-triazol-1-yl]-5-fluoro-2-{[(2S)-1,1,1-trifluoropropan-2-yl]oxy}benzamide]
[1]; [6]
  development of tumor volume / efficacy: stable disease
[1]; [7]
  development of tumor volume / efficacy: stable disease
[2]; [8]
  development of tumor volume / efficacy: shrinkage of the tumors; also recorded: tumor regression
[2]; [6]
  development of tumor volume / efficacy: shrinkage of the tumors; also recorded: tumor regression
[2]; [7]
  development of tumor volume / efficacy: shrinkage of the tumors; also recorded: tumor regression
[3]; [8]
  development of tumor volume / efficacy: tumor growth inhibition
[3]; 5 mg/kg p.o. 5 days on/2 days off (25 mg/kg weekly), listed as BAY2402234
  development of tumor volume / efficacy: tumor growth delay
[3]; [6]
  development of tumor volume / efficacy: tumor growth inhibition
[3]; 5 mg/kg p.o. daily (35 mg/kg weekly), listed as BAY2402234
  development of tumor volume / efficacy: tumor growth delay
[3]; 10 mg/kg p.o. 5 days on/2 days off (50 mg/kg weekly)
  development of tumor volume / efficacy: tumor growth inhibition; also recorded: slightly stronger
[3]; 10 mg/kg p.o. 5 days on/2 days off (50 mg/kg weekly), listed as BAY2402234
  development of tumor volume / efficacy: tumor growth delay; also recorded: slightly more efficacious
[4]
  body weight / tolerability: relative constant bodyweight
[4]; listed as BAY2402234
  body weight / tolerability: best tolerated
[4]; 5 mg/kg p.o. daily, at experiments end
  body weight loss: above 10%
[4]; 10 mg/kg p.o. 5 days on/2 days off, at the end of the experiment
  body weight loss: around 4%
[5]
  dose relative to maximal tolerated dose: close to the maximal tolerated dose

## Cc1c(-c2ccc(-c3ccccc3F)cc2)nc2ccc(F)cc2c1C(=O)O [Brequinar, 6-fluoro-2-(2′-fluoro-[1,1′-biphenyl]-4-yl)-3-methylquinoline-4-carboxylic acid]
Solid cancer
  clinical activity in solid cancer indications: failed to show sufficient clinical activity
Solid cancer; listed as Brequinar sodium
  clinical activity in solid cancer indications: ineffective
